Publication PMC5485984, “Sugar-Binding Profiles of Chitin-Binding Lectins from the Hevein Family: A Comprehensive Study” (International Journal of Molecular Sciences, 2017)

Biological target: T1, DSA (Datura stramonium agglutinin) (Datura stramonium, UniProt A0A089ZWN7)
T1 construct: gene dsa-b; four hevein domains and extensin-like domain
T1 sequence (A0A089ZWN7 24-279): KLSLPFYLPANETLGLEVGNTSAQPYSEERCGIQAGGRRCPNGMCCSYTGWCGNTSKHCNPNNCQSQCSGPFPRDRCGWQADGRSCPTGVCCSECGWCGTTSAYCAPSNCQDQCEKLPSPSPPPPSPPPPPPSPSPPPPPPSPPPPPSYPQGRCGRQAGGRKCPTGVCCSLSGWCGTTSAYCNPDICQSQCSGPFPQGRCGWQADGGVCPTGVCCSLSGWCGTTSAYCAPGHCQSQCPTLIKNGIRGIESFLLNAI
Design: Frontal affinity chromatography, pyridylaminated oligosaccharides on Sepharose-immobilized lectin; Kd = Bt/(V-V0)
Details: binder
Protocol: For systematic comparison of sugar-binding properties of the six chitin-binding lectins, FAC was carried out with a previously established procedure. Briefly, to determine the Kd values of each of the six chitin-binding lectins for 124 PA-oligosaccharides, each of the lectins was immobilized on activated Sepharose at several concentrations: one for concentration-dependent analysis to determine the effective ligand content Bt (expressed in nmol) of a standard column, from which Kd values for a panel of PA-oligosaccharides were determined according to a simplified basic equation of FAC, Kd = Bt/(V − V0). The other(s) are supplementary to cover a wide range of possible Kd values, which is in direct relation to the observed value of V − V0 (for more detail, see Materials and Methods). […] It is often useful to discuss lectin-oligosaccharide interactions in terms of an affinity constant, Ka (1/Kd), instead of Kd. […] This was applied in the cases of DSA (6.0 and 1.5 mg/mL), UDA (6.0, 3.0, 1.0, and 0.3 mg/mL), WGA (7.0, 2.0, and 0.5 mg/mL), and LEL (6.0 and 0.5 mg/mL).

Row | Kd [µM] | SMILES
1 | 31 | OC[C@@H](O)[C@@H](O[C@@H]1O[C@H](CO)[C@H](O)[C@H](O)[C@H]1O)[C@H](O)[C@@H](O)CNc1ccccn1 [compound 701, 701]
2 | 87 | CC(=O)N[C@@H](CNc1ccccn1)[C@@H](O)[C@H](O[C@@H]1O[C@H](CO)[C@H](O)[C@H](O)[C@H]1O)[C@H](O)CO [compound 901, 901]
